Experimental data from the supplement of paper PMC10307832.

Tests used:
Experiment in all cases: relative viability (nuclei count vs DMSO), 5 days (fraction); higher = more cells survive
NCI-H596 = test system: NCI-H596
In short: (§1)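 Relative viability equals treated-well nuclei counts divided by vehicle-well nuclei counts. Counts came from 4× images of lung cancer cell lines grown in 1536-well plates for 5 days after pin-tool dosing on the day after seeding. Dosing used one drug alone or a fixed anchor-drug dose plus five library-drug doses (not always all listed) in √10 steps, and values are medians of duplicate plates.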

LXF-289 = test system: LXF-289
In short: as §1

NCI-H1944 = test system: NCI-H1944
In short: as §1

ChaGo-K-1 = test system: ChaGo-K-1
In short: as §1

NCI-H1975 = test system: NCI-H1975
In short: as §1

NCI-H1666 = test system: NCI-H1666
In short: as §1

LCLC-97TM1 = test system: LCLC-97TM1
In short: as §1

NCI-H2087 = test system: NCI-H2087
In short: as §1

NCI-H661 = test system: NCI-H661
In short: as §1

HCC-78 = test system: HCC-78
In short: as §1

NCI-H1651 = test system: NCI-H1651
In short: as §1

COc1cc2nccc(Oc3ccc(NC(=O)Nc4cc(C)on4)c(Cl)c3)c2cc1OC [Tivozanib] + Cc1nc(Nc2ncc(C(=O)Nc3c(C)cccc3Cl)s2)cc(N2CCN(CCO)CC2)n1 [Dasatinib] (partner 0.075 µM) showed a relative viability (NCI-H596; first compound 0.005 µM) of 0.55, a relative viability (NCI-H596; first compound 0.01581 µM) of 0.591 and a relative viability (NCI-H596; first compound 0.05 µM) of 0.575. It also gave a relative viability (NCI-H596; first compound 0.5 µM) of 0.522, a relative viability (LXF-289; first compound 0.005 µM) of 0.214 and a relative viability (LXF-289; first compound 0.01581 µM) of 0.203. For the same compound, the relative viability (LXF-289; first compound 0.05 µM) was 0.279, the relative viability (LXF-289; first compound 0.1581 µM) was 0.264 and the relative viability (LXF-289; first compound 0.5 µM) was 0.216. For the same compound, the relative viability (NCI-H1944; first compound 0.005 µM) was 0.236, the relative viability (NCI-H1944; first compound 0.01581 µM) was 0.246 and the relative viability (NCI-H1944; first compound 0.05 µM) was 0.208. The relative viability (NCI-H1944; first compound 0.1581 µM) was 0.192, the relative viability (NCI-H1944; first compound 0.5 µM) was 0.208 and the relative viability (ChaGo-K-1; first compound 0.005 µM) was 0.543. For the same compound, the relative viability (ChaGo-K-1; first compound 0.01581 µM) was 0.61, the relative viability (ChaGo-K-1; first compound 0.05 µM) was 0.626 and the relative viability (ChaGo-K-1; first compound 0.1581 µM) was 0.602. It also gave a relative viability (ChaGo-K-1; first compound 0.5 µM) of 0.581, a relative viability (NCI-H1975; first compound 0.005 µM) of 0.381 and a relative viability (NCI-H1975; first compound 0.01581 µM) of 0.367. For the same compound, the relative viability (NCI-H1975; first compound 0.05 µM) was 0.417, the relative viability (NCI-H1975; first compound 0.1581 µM) was 0.278 and the relative viability (NCI-H1975; first compound 0.5 µM) was 0.315. The relative viability (NCI-H1666; first compound 0.005 µM) was 0.785, the relative viability (NCI-H1666; first compound 0.01581 µM) was 0.831 and the relative viability (NCI-H1666; first compound 0.05 µM) was 0.801. The relative viability (NCI-H1666; first compound 0.1581 µM) was 0.819, the relative viability (NCI-H1666; first compound 0.5 µM) was 0.825 and the relative viability (LCLC-97TM1; first compound 0.005 µM) was 0.941. The relative viability (LCLC-97TM1; first compound 0.01581 µM) was 0.855, the relative viability (LCLC-97TM1; first compound 0.05 µM) was 0.923 and the relative viability (LCLC-97TM1; first compound 0.1581 µM) was 0.921. It also gave a relative viability (LCLC-97TM1; first compound 0.5 µM) of 0.836, a relative viability (NCI-H2087; first compound 0.005 µM) of 0.6 and a relative viability (NCI-H2087; first compound 0.01581 µM) of 0.742. It also gave a relative viability (NCI-H2087; first compound 0.05 µM) of 0.794, a relative viability (NCI-H2087; first compound 0.1581 µM) of 0.911 and a relative viability (NCI-H2087; first compound 0.5 µM) of 0.772. It also gave a relative viability (NCI-H661; first compound 0.005 µM) of 0.851, a relative viability (NCI-H661; first compound 0.01581 µM) of 0.909 and a relative viability (NCI-H661; first compound 0.05 µM) of 0.95. It also gave a relative viability (NCI-H661; first compound 0.1581 µM) of 0.834, a relative viability (NCI-H661; first compound 0.5 µM) of 0.796 and a relative viability (HCC-78; first compound 0.005 µM) of 0.365. The relative viability (HCC-78; first compound 0.01581 µM) was 0.387, the relative viability (HCC-78; first compound 0.05 µM) was 0.466 and the relative viability (HCC-78; first compound 0.1581 µM) was 0.263. For the same compound, the relative viability (HCC-78; first compound 0.5 µM) was 0.362, the relative viability (NCI-H1651; first compound 0.005 µM) was 0.291 and the relative viability (NCI-H1651; first compound 0.01581 µM) was 0.437. It also gave a relative viability (NCI-H1651; first compound 0.05 µM) of 0.457, a relative viability (NCI-H1651; first compound 0.1581 µM) of 0.36 and a relative viability (NCI-H1651; first compound 0.5 µM) of 0.377.
